The record followed here is US8658605B2, “Bioactivity composition of Reevesia formosana” (priority 2011, dated 2014).

The subject of test [1] is MCF-7 (human breast adenocarcinoma). As to the kind of experiment: MTS reduction assay, cytotoxicity on MCF-7 cells. The test is classed as cell-based. The conditions noted are these: average of three repeats. As for the experimental part: (§1) MCF-7 (human breast adenocarcinoma), NCI-H460 (non-small-cell lung cancer) and HepG2 (liver hepatocellular cells) were incubated in a modified Dulbecco's Eagle's medium with 10% FBS and nonessential amino acid ([…], Inc) in an incubator with 37° C., 5% CO2/Air. Human cancer cell lines were planted in 96-well plates, and each well which contained the 100 μl medium were planted one of MCF-7 and NCI-H460 with a cell amount of 6500, 2500 and 7500. After overnight incubation, each cell line was administered at least 8 testing compounds with different concentrations individually, and subsequently the cell lines were incubated in the incubator for 72 hours. According to a method of MTS reduction assay, 5-(3-carboxymethoxyphenyl)-2-(4,5-dimethylthiazoyl)-3-(4-sulfophenyl)tetrazolium salt (MTS) was applied on estimating alive cell numbers, and 0.1% DMSO (Promega, Madison, Wis., USA) was a control group because DMSO controlled a result of percentage, the result could be a dose-response curve of IC50 value. […] The IC50 value was an average of three times repeats. The 10000/well HepG2 cells were planted on a 96-well plate and were gone through the same experiences.

Test [2] has as its system NCI-H460 (non-small-cell lung cancer). In words: MTS reduction assay, cytotoxicity on NCI-H460 cells. The settings on record: NCI-H460, 72 hours, average of three repeats. The test is classed as cell-based, human. As for the experimental part: as §1
Test [3] deals with HepG2 (liver hepatocellular cells). As to the kind of experiment: MTS reduction assay, cytotoxicity on HepG2 cells. Type of test: cell-based, human. The settings on record: HepG2, 72 hours, average of three repeats. As for the experimental part:
as §1

Some results are limits rather than exact numbers.

On to `COC1C(OC2CCC3(C=O)C4CCC5(C)C(C6=CC(=O)OC6)CCC5(O)C4CCC3(O)C2)OC(C)C(O)C1O` (stereo not drawn) [epi-reevesioside F (7), epi-reevesioside F], for which the IC50 was 34.1 ± 5.5 nM in test [1] (MCF-7, 72 hours); 10.4 ± 0.5 nM in test [2]; 996 ± 92.6 nM in test [3].
For `C[C@@H]1C[C@H]2OCO[C@H]2[C@H](O[C@H]2CC[C@]3(C=O)[C@H]4CC[C@]5(C)[C@@H](C6=CC(=O)OC6)CC[C@]5(O)[C@@H]4CC[C@]3(O)C2)O1` [reevesioside A (1), reevesioside A], the half-inhibitory concentration (IC50) was found to be 63.2 ± 2.1 nM in test [1] (MCF-7, 72 hours); 19.3 ± 0.5 nM in test [2]; 368 ± 29.9 nM in test [3].
As to `COc1cc2c3c(c4cc(OC)c(OC)cc4c2cc1OC)CN1CCC[C@@H]1C3` [tylophorine, reference compound], the IC50 was 236 ± 11 nM in test [1] (Homo sapiens, MCF7, MCF-7, 72 hours); 233 ± 24 nM in test [2] (Homo sapiens); 215 ± 14 nM in test [3] (Homo sapiens).
On to reevesioside B [reevesioside B (2)], for which the IC50 in test [1] (MCF-7, 72 hours) was found to be 3520 ± 72 nM; in test [2], 431 ± 45.1 nM; in test [3], 4760 ± 202 nM.
On the same counts, the results for reevesioside C [reevesioside C (3)] are 2040 ± 173 nM, 208 ± 15.6 nM and 3740 ± 261 nM.
Regarding reevesioside D [reevesioside D (4)], the IC50 in test [1] (MCF-7, 72 hours) was 36400 ± 2580 nM; in test [2], 3900 ± 316 nM; in test [3] it was more than 500000 nM.
As to reevesioside E [reevesioside E (5)], the IC50 stood at 11800 ± 2240 nM in test [1] (MCF-7, 72 hours); 1770 ± 35.4 nM in test [2]; 40500 ± 6430 nM in test [3].
Regarding reevesioside F [reevesioside F (6)], the 50% inhibitory concentration (IC50) in test [1] (MCF-7, 72 hours) was 72 ± 8.1 nM; in test [2], 20.3 ± 0.4 nM; in test [3], 836 ± 33.2 nM.

What is called IC50 is the point on the concentration scale where inhibition reaches its midpoint.
